Assay results published in US20230085307A1, “PYRIDAZINONE COMPOUND AND HERBICIDE” (NISSAN CHEMICAL CORPORATION, priority 2019, published 2023).

What was measured:
[1] = tested on: southern crabgrass; test: Test Example 4: herbicidal effect by soil treatment (Table 19, symbol F); assay type: in vivo, southern crabgrass (Digitaria ciliaris); conditions: amount of applied herbicide 320 g/ha
Procedure, shortened: (§1)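 Applied as a water-diluted emulsion, the compound was sprayed onto soil covering newly sown seeds. Evaluation came three weeks after application, in a greenhouse held at 25° C. to 30° C.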

[2] = tested on: green foxtail; test: Test Example 4: herbicidal effect by soil treatment (Table 19, symbol G); assay type: in vivo, green foxtail (Setaria viridis); conditions: amount of applied herbicide 320 g/ha
Procedure, shortened: as §1

[3] = tested on: barnyard grass; test: Test Example 4: herbicidal effect by soil treatment (Table 19, symbol H); assay type: in vivo, barnyard grass (Echinochloa crus-galli); conditions: amount of applied herbicide 320 g/ha
Procedure, shortened: as §1

[4] = tested on: wild oat; test: Test Example 4: herbicidal effect by soil treatment (Table 19, symbol I); assay type: in vivo, wild oat (Avena fatua); conditions: amount of applied herbicide 320 g/ha
Procedure, shortened: as §1

[5] = tested on: blackgrass; test: Test Example 4: herbicidal effect by soil treatment (Table 19, symbol J); assay type: in vivo, blackgrass (Alopecurus myosuroides); conditions: amount of applied herbicide 320 g/ha
Procedure, shortened: as §1

[6] = tested on: Italian ryegrass; test: Test Example 4: herbicidal effect by soil treatment (Table 19, symbol K); assay type: in vivo, Italian ryegrass (Lolium multiflorum); conditions: amount of applied herbicide 320 g/ha
Procedure, shortened: as §1

[7] = tested on: windgrass; test: Test Example 4: herbicidal effect by soil treatment (Table 19, symbol L); assay type: in vivo, windgrass (Apera spica-venti); conditions: amount of applied herbicide 320 g/ha
Procedure, shortened: as §1

[8] = tested on: velvetleaf; test: Test Example 4: herbicidal effect by soil treatment (Table 19, symbol M); assay type: in vivo, velvetleaf (Abutilon theophrasti); conditions: amount of applied herbicide 320 g/ha
Procedure, shortened: as §1

[9] = tested on: redroot pigweed; test: Test Example 4: herbicidal effect by soil treatment (Table 19, symbol N); assay type: in vivo, redroot pigweed (Amaranthus retroflexus); conditions: amount of applied herbicide 320 g/ha
Procedure, shortened: as §1

[10] = tested on: lambsquarters; test: Test Example 4: herbicidal effect by soil treatment (Table 19, symbol O); assay type: in vivo, lambsquarters (Chenopodium album); conditions: amount of applied herbicide 320 g/ha
Procedure, shortened: as §1

[11] = tested on: chickweed; test: Test Example 4: herbicidal effect by soil treatment (Table 19, symbol P); assay type: in vivo, common chickweed (Stellaria media); conditions: amount of applied herbicide 320 g/ha
Procedure, shortened: as §1

[12] = tested on: false cleavers; test: Test Example 4: herbicidal effect by soil treatment (Table 19, symbol Q); assay type: in vivo, false cleavers (Galium spurium); conditions: amount of applied herbicide 320 g/ha
Procedure, shortened: as §1

[13] = tested on: persian speedwell; test: Test Example 4: herbicidal effect by soil treatment (Table 19, symbol R); assay type: in vivo, Persian speedwell (Veronica persica); conditions: amount of applied herbicide 320 g/ha
Procedure, shortened: as §1

[14] = tested on: barnyard grass; test: Test Example 3: herbicidal effect by foliage application, Wagner pot (Table 18, symbol H); assay type: in vivo, barnyard grass (Echinochloa crus-galli); conditions: amount of applied herbicide 320 g/ha
Procedure, shortened: (§2)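 Plants were sown in alluvial soil held under 0.1–0.5 cm standing water and grown 14 days in a greenhouse at 25–30 °C. An emulsifiable formulation, water-diluted to the set dose, was then sprayed onto the foliage, and effects were scored three weeks later using previously defined criteria.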

[15] = tested on: Chinese sprangletop; test: Test Example 3: herbicidal effect by foliage application, Wagner pot (Table 18, symbol D); assay type: in vivo, chinese sprangletop (Leptochloa chinensis); conditions: amount of applied herbicide 320 g/ha
Procedure, shortened: as §2

[16] = tested on: rice flat sedge; test: Test Example 3: herbicidal effect by foliage application, Wagner pot (Table 18, symbol E); assay type: in vivo, rice flat sedge (Cyperus iria); conditions: amount of applied herbicide 320 g/ha
Procedure, shortened: as §2

[17] = tested on: southern crabgrass; test: Test Example 5: herbicidal effect by foliage application, plastic box (Table 20, symbol F); assay type: in vivo, southern crabgrass (Digitaria ciliaris); conditions: foliage application, 320 g/ha, evaluated 3 weeks after application
Procedure, shortened: (§3)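 Sow seeds spot-wise in sterilized diluvial soil; cover with ~1.5 cm soil. Grow 14 days in greenhouse, 25° C. to 30° C. Spray foliage with emulsion diluted to predetermined amount. Rate effect after 3 weeks.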

[18] = tested on: green foxtail; test: Test Example 5: herbicidal effect by foliage application, plastic box (Table 20, symbol G); assay type: in vivo, green foxtail (Setaria viridis); conditions: foliage application, 320 g/ha, evaluated 3 weeks after application
Procedure, shortened: as §3

[19] = tested on: barnyard grass; test: Test Example 5: herbicidal effect by foliage application, plastic box (Table 20, symbol H); assay type: in vivo, barnyard grass (Echinochloa crus-galli); conditions: foliage application, 320 g/ha, evaluated 3 weeks after application
Procedure, shortened: as §3

[20] = tested on: wild oat; test: Test Example 5: herbicidal effect by foliage application, plastic box (Table 20, symbol I); assay type: in vivo, wild oat (Avena fatua); conditions: foliage application, 320 g/ha, evaluated 3 weeks after application
Procedure, shortened: as §3

[21] = tested on: blackgrass; test: Test Example 5: herbicidal effect by foliage application, plastic box (Table 20, symbol J); assay type: in vivo, blackgrass (Alopecurus myosuroides); conditions: foliage application, 320 g/ha, evaluated 3 weeks after application
Procedure, shortened: as §3

[22] = tested on: Italian ryegrass; test: Test Example 5: herbicidal effect by foliage application, plastic box (Table 20, symbol K); assay type: in vivo, Italian ryegrass (Lolium multiflorum); conditions: foliage application, 320 g/ha, evaluated 3 weeks after application
Procedure, shortened: as §3

[23] = tested on: windgrass; test: Test Example 5: herbicidal effect by foliage application, plastic box (Table 20, symbol L); assay type: in vivo, windgrass (Apera spica-venti); conditions: foliage application, 320 g/ha, evaluated 3 weeks after application
Procedure, shortened: as §3

[24] = tested on: velvetleaf; test: Test Example 5: herbicidal effect by foliage application, plastic box (Table 20, symbol M); assay type: in vivo, velvetleaf (Abutilon theophrasti); conditions: foliage application, 320 g/ha, evaluated 3 weeks after application
Procedure, shortened: as §3

[25] = tested on: redroot pigweed; test: Test Example 5: herbicidal effect by foliage application, plastic box (Table 20, symbol N); assay type: in vivo, redroot pigweed (Amaranthus retroflexus); conditions: foliage application, 320 g/ha, evaluated 3 weeks after application
Procedure, shortened: as §3

[26] = tested on: lambsquarters; test: Test Example 5: herbicidal effect by foliage application, plastic box (Table 20, symbol O); assay type: in vivo, lambsquarters (Chenopodium album); conditions: foliage application, 320 g/ha, evaluated 3 weeks after application
Procedure, shortened: as §3

[27] = tested on: chickweed; test: Test Example 5: herbicidal effect by foliage application, plastic box (Table 20, symbol P); assay type: in vivo, common chickweed (Stellaria media); conditions: foliage application, 320 g/ha, evaluated 3 weeks after application
Procedure, shortened: as §3

[28] = tested on: persian speedwell; test: Test Example 5: herbicidal effect by foliage application, plastic box (Table 20, symbol R); assay type: in vivo, Persian speedwell (Veronica persica); conditions: foliage application, 320 g/ha, evaluated 3 weeks after application
Procedure, shortened: as §3

Compound	F: southern crabgrass, herbicidal effect grade [1]	G: green foxtail, herbicidal effect grade [2]	H: barnyard grass, herbicidal effect grade [3]	I: wild oat, herbicidal effect grade [4]	K: Italian ryegrass, herbicidal effect grade [6]	L: windgrass, herbicidal effect grade [7]	M: velvetleaf, herbicidal effect grade [8]	N: redroot pigweed, herbicidal effect grade [9]	O: lambsquarters, herbicidal effect grade [10]	P: chickweed, herbicidal effect grade [11]	Q: false cleavers, herbicidal effect grade [12]	R: persian speedwell, herbicidal effect grade [13]	other results
CCCC(=O)Oc1c(C)nn(C)c(=O)c1-c1c(-c2ccc(OC)c(OC)c2)sc2cc(OC)ccc12 [3-081]	0 (Herbicidal rate of 5% or less (almost no effect))	0 (Herbicidal rate of 5% or less (almost no effect))	0 (Herbicidal rate of 5% or less (almost no effect))	0 (Herbicidal rate of 5% or less (almost no effect))	0 (Herbicidal rate of 5% or less (almost no effect))	0 (Herbicidal rate of 5% or less (almost no effect))	0 (Herbicidal rate of 5% or less (almost no effect))	0 (Herbicidal rate of 5% or less (almost no effect))	0 (Herbicidal rate of 5% or less (almost no effect))	0 (Herbicidal rate of 5% or less (almost no effect))	0 (Herbicidal rate of 5% or less (almost no effect))	2 (Herbicidal rate of 20% or more and less than 40%)	J: blackgrass, herbicidal effect grade [5]: 0 (Herbicidal rate of 5% or less (almost no effect))
Cc1ccc2oc(-c3ccc(OC(F)F)cc3)c(-c3c(O)c(C)nn(C)c3=O)c2c1 [9-053]	2 (Herbicidal rate of 20% or more and less than 40%)	4 (Herbicidal rate of 70% or more and less than 90%)	4 (Herbicidal rate of 70% or more and less than 90%)	0 (Herbicidal rate of 5% or less (almost no effect))	5 (Herbicidal rate of 90% or more (almost completely withered))	0 (Herbicidal rate of 5% or less (almost no effect))	4 (Herbicidal rate of 70% or more and less than 90%)	5 (Herbicidal rate of 90% or more (almost completely withered))	5 (Herbicidal rate of 90% or more (almost completely withered))	3 (Herbicidal rate of 40% or more and less than 70%)	0 (Herbicidal rate of 5% or less (almost no effect))	4 (Herbicidal rate of 70% or more and less than 90%)	Herbicidal effect on H (barnyard grass), foliage application [14]: 4 (Herbicidal rate of 70% or more and less than 90%); Herbicidal effect on D (Chinese sprangletop), foliage application [15]: 0 (Herbicidal rate of 5% or less (almost no effect)); Herbicidal effect on E (rice flat sedge), foliage application [16]: 4 (Herbicidal rate of 70% or more and less than 90%); F (southern crabgrass) herbicidal effect grade [17]: 3 (Herbicidal rate of 40% or more and less than 70%); G (green foxtail) herbicidal effect grade [18]: 4 (Herbicidal rate of 70% or more and less than 90%); H (barnyard grass) herbicidal effect grade [19]: 3 (Herbicidal rate of 40% or more and less than 70%); I (wild oat) herbicidal effect grade [20]: 0 (Herbicidal rate of 5% or less (almost no effect)); J (blackgrass) herbicidal effect grade [21]: 4 (Herbicidal rate of 70% or more and less than 90%); K (Italian ryegrass) herbicidal effect grade [22]: 5 (Herbicidal rate of 90% or more (almost completely withered)); L (windgrass) herbicidal effect grade [23]: 3 (Herbicidal rate of 40% or more and less than 70%); M (velvetleaf) herbicidal effect grade [24]: 5 (Herbicidal rate of 90% or more (almost completely withered)); N (redroot pigweed) herbicidal effect grade [25]: 5 (Herbicidal rate of 90% or more (almost completely withered)); O (lambsquarters) herbicidal effect grade [26]: 5 (Herbicidal rate of 90% or more (almost completely withered)); P (chickweed) herbicidal effect grade [27]: 5 (Herbicidal rate of 90% or more (almost completely withered)); R (persian speedwell) herbicidal effect grade [28]: 5 (Herbicidal rate of 90% or more (almost completely withered))
